These results are taken from article PMC7278020, “Triterpenic Acids as Non-Competitive α-Glucosidase Inhibitors from Boswellia elongata with Structure-Activity Relationship: In Vitro and In Silico Studies” (Biomolecules, 2020).

Assay [1] concerns the target T1, α-Glucosidase enzyme (E.C. 3.2.1.20) (Saccharomyces cerevisiae, UniProt P53341).
T1 construct: purchased Sigma-Aldrich G0660-750UN
Nature of the assay: biochemical. As for the experimental part: (§1) α-Glucosidase enzyme (E.C. 3.2.1.20) from Saccharomyces cerevisiae were purchased from Sigma-Aldrich (Darmstadt, Hesse, Germany) with product number of G0660-750UN and their inhibition assay was carried out by using 0.1 M phosphate buffer (pH 6.8) solution at 37 °C. […] For the kinetics studies, different concentrations (0.1, 0.2, 0.4 and 0.8 mM) of p-nitrophenyl-α-D-glucopyranoside (substrate) were used. In control the tested compounds were replaced with DMSO-d6 (7.5% final). […] Three time the experiment was repeated having triplicate of each samples. The % inhibition was calculated by using the following formula:% Inhibition = 100 − (OD test well/OD control) ×100 (OD = Optical density)

The target of assay [2] is T2, α-glucosidase enzyme (Saccharomyces cerevisiae, UniProt P53341).
T2 construct: purchased Sigma-Aldrich G0660-750UN
T2 sequence (P53341 whole entry): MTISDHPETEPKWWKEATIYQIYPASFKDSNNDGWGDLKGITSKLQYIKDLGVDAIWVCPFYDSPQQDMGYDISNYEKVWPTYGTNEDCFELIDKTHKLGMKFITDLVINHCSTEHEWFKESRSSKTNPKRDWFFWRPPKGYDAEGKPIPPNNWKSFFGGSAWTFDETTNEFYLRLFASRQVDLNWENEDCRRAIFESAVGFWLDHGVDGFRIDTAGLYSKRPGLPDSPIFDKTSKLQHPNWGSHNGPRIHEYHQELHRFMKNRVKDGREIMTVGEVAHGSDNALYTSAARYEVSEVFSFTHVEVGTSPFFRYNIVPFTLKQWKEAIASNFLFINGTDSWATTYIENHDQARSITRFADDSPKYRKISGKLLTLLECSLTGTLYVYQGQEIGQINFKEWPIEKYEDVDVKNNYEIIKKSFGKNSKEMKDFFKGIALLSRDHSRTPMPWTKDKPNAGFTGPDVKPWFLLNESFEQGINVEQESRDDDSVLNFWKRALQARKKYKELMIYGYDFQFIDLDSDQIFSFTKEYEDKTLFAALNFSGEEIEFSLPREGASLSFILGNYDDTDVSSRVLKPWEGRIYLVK
The assay is described as follows: Kinetics studies on α-glucosidase (Lineweaver–Burk, secondary replot, Dixon plot). Type of assay: biochemical. Particulars: for Type of Inhibition: Lineweaver–Burk plots. As for the experimental part: as §1
The type of inhibition was determined by Lineweaver–Burk plots, the reciprocal of the rate of the reaction was plotted against the reciprocal of substrate concentrations to monitor the effect of inhibitor on both Km and Vmax. […] In non-competitive inhibition, the Vmax of enzyme decreased, while Km are not affected. […] The secondary replots of Lineweaver–Burk plots were used to determine the Ki values.

The target in assay [3] is T1, α-Glucosidase enzyme (E.C. 3.2.1.20). Particulars: the previous investigation; acetyl group at C-3 position; cited from earlier work.
Assay [4] deals with T2, α-glucosidase enzyme. Also noted: method as in PMID 29030193. Particulars: cited from earlier work.
The mark [5] stands for this setting: substrate 0.1, 0.2, 0.4 and 0.8 mM, read-out: Ki = µM ± SEM.
Where [6] appears, read: pH 6.8, 37 °C, substrate p-nitrophenyl-α-D-glucopyranoside 0.7 mM, NA = Not active, read-out: IC50 = µM ± SEM.

Read-outs that look alike come from different tables or passages of the source.

T1 sequence (P53341 whole entry): as above

A word on the inhibition: it is the change of the read-out against control, counted positive when it falls. Turning to `C/C1=C\CC/C(C)=C/C[C@H](C(C)(C)O)CC/C(C)=C/CC1` [Compound 20, Iso-serratol], the inhibition at 1000 µM in assay [1] is under 50%.

For orientation: Ki means the dissociation constant of the complex between target and ligand, obtained from inhibition or displacement. For orientation: IC50 means the point on the concentration scale where inhibition reaches its midpoint. As for `CC(=O)O[C@@H]1CC[C@]2(C)C3=CC=C4C5[C@@H](C)[C@H](C)CC[C@]5(C)CC[C@@]4(C)[C@]3(C)CCC2[C@@]1(C)C(=O)O` (stereo partly drawn) [Compound 4, 3-O-Acetyl-9,11-dehydro-β-boswellic acid], at α-glucosidase enzyme [2], the Ki is 7.05 ± 0.75 µM and the “Type of Inhibition” value is given as “Non-competitive”. This compound came in with an IC50 in assay [1] of 9.9 ± 0.48 µM. In assay [1] (from IC50 values), the “times more active than the standard inhibitor acarbose” value is 94 times. The compound `CC(=O)OC1CCC2(C)C3=C(CCC2C1(C)C)C1(C)CCC(C(C)CCC=C(C)C)C1(C)CC3` (stereo not drawn) [Compound 1, 5α-tirucalla-8,24-dien-3α-acetate] gave an inhibition at 1000 µM in assay [1] of under 50%. Moreover, in assay [1] (pH 6.8, 37 °C, substrate p-nitrophenyl-α-D-glucopyranoside 0.7 mM, NA = Not active), the “IC50 = µM ± SEM” value is “inactive”. With `CC(=O)O[C@@H]1CC[C@@]2(C)[C@@H](CC[C@]3(C)[C@@H]2CC=C2[C@@H]4[C@@H](C)[C@H](C)CC[C@]4(C)CC[C@]23C)[C@@]1(C)C(=O)O` [Compound 6, 3-Acetyl-β-boswellic acid], the “glucosidase inhibition (in words)” value in assay [3] is given as “most promising glucosidase inhibitors”.

Turning to `CC(=O)O[C@@H]1CC[C@@]2(C)[C@@H](CC[C@]3(C)[C@@H]2C(=O)C=C2[C@@H]4[C@@H](C)[C@H](C)CC[C@]4(C)CC[C@]23C)[C@@]1(C)C(=O)O` [Compound 7, 3-Acetyl 11-keto-β-boswellic acid], the “glucosidase inhibition (in words)” value in assay [3] is recorded as “most promising glucosidase inhibitors”. Regarding `CC(C)=CCC[C@H](C)C1CC[C@]2(C)C3=C(CC[C@@]12C)[C@@]1(C)CC[C@@H](O)C(C)(C)C1CC3` (stereo partly drawn) [Compound 2, 5α-Tirucalla-8,24-dien-3α-ol], in assay [1], the inhibition at 1000 µM is under 50%. With `CC(=O)O[C@@H]1CC[C@@]2(C)[C@@H](CC[C@]3(C)[C@@H]2CC=C2[C@@H]4CC(C)(C)CC[C@]4(C)CC[C@]23C)[C@@]1(C)C(=O)O` [Compound 12, 3-Acetyl-α-boswellic acid], the “glucosidase inhibition (in words)” value in assay [3] is given as “most promising glucosidase inhibitors”. For the compound `C[C@@H]1CC[C@H]2[C@@H]1C1C(CC[C@]2(C)O)C1(C)C` (some centres unmarked) [Compound 19, Viridiflorol], the inhibition at 1000 µM in assay [1] was under 50%.

With `CC1(C)CC[C@]2(C(=O)O)CC[C@]3(C)C(=CC[C@@H]4[C@@]5(C)CC[C@H](O)C(C)(C)[C@@H]5CC[C@]43C)[C@@H]2C1` [oleanolic acid], the “Type of inhibition of α-glucosidase (literature)” value at α-glucosidase enzyme [4] was “non-competitive inhibitors”.

Turning to `CC(=O)O[C@@H]1CC[C@]2(C)C3=C(CCC2C1(C)C)[C@@]1(C)CCC([C@H](CCC=C(C)C)C(=O)O)[C@]1(C)CC3` (stereo partly drawn) [Compound 3, 3α-Acetoxytirucall-8,24-dien-21-oic acid], the “Type of Inhibition” value on α-glucosidase enzyme [2] is on record as “Non-competitive”. Also, on α-glucosidase enzyme [2] (setting [5]), the Ki was determined as 51.1 ± 0.63 µM. In assay [1] (setting [6]), the IC50 came to 56.8 ± 1.3 µM.

Consider `C[C@H]1[C@H](C)CC[C@]2(C(=O)O)CC[C@]3(C)C(=CC[C@@H]4[C@@]5(C)CC[C@H](O)C(C)(C)[C@@H]5CC[C@]43C)[C@H]12` [ursolic acid], for which the “Type of inhibition of α-glucosidase (literature)” value at α-glucosidase enzyme [4] was “non-competitive inhibitors”.

Turning to `C[C@@H]1CC[C@]2(C)CC[C@]3(C)C(=CC=C4[C@@]5(C)CC[C@@H](O)[C@](C)(C(=O)O)C5CC[C@]43C)C2[C@H]1C` (stereo partly drawn) [Compound 5, 9,11-Dehydro-β-boswellic acid], the “Type of Inhibition” value at α-glucosidase enzyme [2] is “Non-competitive”. For the same compound, the inhibitory constant (Ki) on α-glucosidase enzyme [2] (setting [5]) is 15.3 ± 0.54 µM. Also, the half-inhibitory concentration (IC50) in assay [1] (setting [6]) came out at 20.9 ± 0.05 µM. Turning to `CO[C@@H]1C=C2C3[C@@H](C)[C@H](C)CC[C@]3(C)CC[C@@]2(C)[C@]2(C)CCC3[C@](C)(CC[C@@H](O)[C@]3(C)C(=O)O)C12` (stereo partly drawn) [Compound 11, 11α-methoxy-β-boswellic acid], at α-glucosidase enzyme [2], the inhibitory constant (Ki) was determined as 8.05 ± 0.38 µM and the “Type of Inhibition” value is “Non-competitive”. This compound registered a half-maximal inhibitory concentration (IC50) in assay [1] of 14.9 ± 1.31 µM.
